One data set has as its system P388 leukemia. Description: antitumor activity against intravenously implanted P388 leukemia in BDF1 female mice. In kind it is in vivo, murine (BDF1 female mice). The following applies: 10^6 P388 cells i.v., 64 days. Here is the method: Compound of Example 15 was evaluated against intravenously implanted P388 leukemia (10^6 cells) in BDF1 female mice. The test compound was administered intravenously at various dose levels to groups of six mice on days 5 and 8; the positive control, etoposide, was given intraperitoneally. The experiment lasted 64 days.

Another data set concerns B16-F10 murine melanoma. Description: in vitro cytotoxicity assay, B16-F10 murine melanoma. In kind it is cell-based. The following applies: concentration required to inhibit cell growth by 50%, four-fold serial dilution, replicate determinations on separate lines. The procedure: (§1) Representative compounds of the present invention were also evaluated in in vitro cytotoxicity assay against various murine and human tumor cell lines. The in vitro cytotoxicity assay involved growing various mammalian tumor cells, including human tumor cells, on microtitre plates employing established tissue culture methods. The concentration of each compound required to inhibit cell growth by 50% (IC50) was then determined by four-fold serial dilution technique. Tumor cells of the following types were employed for each compound tested: B16-F10 murine melanoma; Moser human colon; SW900 human lung; and two human colon tumor cell lines namely HCT-116, and HCT/VP35, the latter being resistant to etoposide (VP). […] The in vitro data may also be evaluated in terms of potency ratio which is defined as the ratio of IC50 against an etoposide-resistant cell-line to IC50 against an etoposide-sensitive cell-line.

Another data set deals with HCT/VP35. The experiment in a line: in vitro cytotoxicity assay, HCT/VP35 human colon tumor resistant to etoposide. In kind it is cell-based. The following applies: etoposide-resistant line, concentration required to inhibit cell growth by 50%, four-fold serial dilution, replicate determinations on separate lines. Here is the method:
as §1

The conditions of data set [1]: cited from earlier work.
In another data set the test system is SW900 human lung. The experiment in a line: in vitro cytotoxicity assay, SW900 human lung. It counts as cell-based. The conditions noted are these: concentration required to inhibit cell growth by 50%, four-fold serial dilution, replicate determinations on separate lines. Here is the method:
as §1

A further data set concerns HCT-116. The experiment in a line: in vitro cytotoxicity assay, HCT-116 human colon tumor. In kind it is cell-based. The conditions noted are these: concentration required to inhibit cell growth by 50%, four-fold serial dilution, replicate determinations on separate lines. Here is the method: as §1
The subject of a further data set is Moser human colon. Description: in vitro cytotoxicity assay, Moser human colon. In kind it is cell-based. The following applies: concentration required to inhibit cell growth by 50%, four-fold serial dilution, replicate determinations on separate lines. Here is the method: as §1
For data set [2] the following is noted: Cancer Chemoth. Rep., 1966, 50:565-571; cited from earlier work.

“And” between values parts separate entries of the source, which are not always exact repeats. Identical values can stand only once. Counter-ions that a name gives are not always drawn.

In the case of `COc1cc([C@@H]2c3cc4c(cc3[C@@H](O[C@@H]3O[C@@H]5CO[C@@H](C)O[C@H]5[C@H](O)[C@H]3O)[C@H]3COC(=O)[C@H]23)OCO4)cc(OC)c1O` [etoposide, reference compound], in the data set on P388 leukemia (etoposide i.p., 125 mg/kg/dose), the “max. % T/C (positive control)” value is reported as greater than 753 % T/C. Besides, the “IC50 B16-F10” value with B16-F10 murine melanoma is 16.75 µg/mL and 19.47 µg/mL and 27.72 µg/mL and 30.38 µg/mL and 9.96 µg/mL and 5.80 µg/mL; in the data set with B16-F10 murine melanoma (listed as Etoposide) it was 19.36 µg/mL and 51.93 µg/mL and 62.19 µg/mL. The “IC50 HCT/VP35” value in the data set with HCT/VP35 was 122.79 µg/mL and 184.01 µg/mL and 98.33 µg/mL and 142.90 µg/mL and 79.06 µg/mL and 48.22 µg/mL; in the data set on HCT/VP35 (listed as Etoposide), 16.31 µg/mL and 18.74 µg/mL and 140.63 µg/mL. Moreover, the in vivo metabolism entry in data set [1] is on record as “extensively metabolized to the open ring hydroxy acid”. For the same molecule, the “IC50 SW900” value with SW900 human lung was 201.94 µg/mL and 241.29 µg/mL and 243.49 µg/mL and > 500 µg/mL and 77.80 µg/mL and 54.59 µg/mL; in the data set with SW900 human lung (listed as Etoposide), 213.23 µg/mL and 241.88 µg/mL. The “IC50 HCT-116” value in the data set with HCT-116 is 14.78 µg/mL and 20.54 µg/mL and 38.03 µg/mL and 41.01 µg/mL and 3.86 µg/mL and 6.57 µg/mL; in the data set on HCT-116 (listed as Etoposide), 15.21 µg/mL and 30.12 µg/mL and 51.27 µg/mL. Moreover, the “IC50 Moser” value in the data set on Moser human colon is 121.73 µg/mL and 163.19 µg/mL and 208.30 µg/mL and 209.76 µg/mL and 65.72 µg/mL and 54.09 µg/mL; in the data set on Moser human colon (listed as Etoposide), 94.51 µg/mL and 97.83 µg/mL and 116.41 µg/mL.

Consider `CCNNC(=O)C1C(c2cc(OC)c(OC)c(OC)c2)c2cc3c(cc2C(O)C1CO)OCO3` (centres unmarked) [ethyl hydrazide of podophyllotoxin (V), ethyl hydrazide of podophyllotoxin], for which the “antitumor activity in clinical trials” value in data set [2] is “minimal antitumor activity”.

Regarding `COc1cc([C@@H]2c3cc4c(cc3[C@@H](O[C@@H]3O[C@@H]5CO[C@@H](C)O[C@H]5[C@H](O)[C@H]3O)[C@H]3CNC(=O)[C@H]23)OCO4)cc(OC)c1OP(=O)(O)O` [Example 15, 6H-Pyrrolo[3',4':6,7]naphtho[2,3-d]-1,3-dioxole-6-one, 5,5a,7,8,8a,9-hexahydro-9-[(4,6-O-ethylidene-β-Dglucopyranosyl)oxy]-5-[(3,5-dimethoxy-4-phosphonoxy)phenyl]-1, disodium salt, [5R-[5α,5aβ,8aα,9β(R*)]-], the “max. % T/C” value in the data set on P388 leukemia (drug i.v. on days 5 and 8, 200 mg/kg/dose) came to 235 % T/C.
